Measurements from patent US20260137701A1, “CHOLESTENOIC ACID (CA) AND A SULFATED DERIVATIVE THEREOF, 3[BETA]-SULFATE-5-CHOLESTENOIC ACID (CA3S), AS ENDOGENOUS EPIGENETIC REGULATORS” (priority 2022, published 2026).

How the values were obtained:
[1] = molecular target: recombinant DNMT1 (Homo sapiens, UniProt P26358); assay: DNMT1 enzyme kinetic (activity) assay, 3H-SAM filter; assay type: biochemical
Method: (§1) The enzyme kinetic studies were carried out by Reaction Biology Company. For the DNMT1 activity assay, the substrate solution, 0.001 mg/ml Poly(dI-dC): Poly(dI-dC) in 50 mM Tris-HCl, pH 7.5, 50 mM NaCl, 5 mM EDTA, 5 mM DTT, 1 mM PMSF, 5% glycerol, 0.01% Brij™35, 1% DMSO was used. For the DNMT3a/3b activity assay, 0.0075 mg/ml Lambda DNA in 50 mM Tris-HCl, pH 7.5, 50 mM NaCl, 5 mM EDTA, 5 mM DTT, 1 mM PMSF, 5% glycerol, 1% DMSO, was used. The indicated DNMT1, DNMT3a and DNMT3b were added to the appropriate substrate solution and gently mixed. Amounts of CA ranging from 5.08E-09 to 0.0001 M in DMSO were added to the reaction mixture by using Acoustic Technology (Echo® 550, LabCyte Inc. Sunnyvale, CA). The mixtures were first incubated for 15 min, then ^3H-SAM was added to the reaction mixture to initiate the reaction, and the mixture was incubated for 60 min at 30° C. Following incubation, the reaction mixture was finally transferred to filter-paper for detection of radioactivity counts.

[2] = molecular target: recombinant DNMT3b (Homo sapiens, UniProt Q9UBC3); assay: DNMT3b enzyme kinetic (activity) assay, 3H-SAM filter; assay type: biochemical; conditions: read-out: IC50, inhibits DNMT3b activity
Method: as §1

[3] = system: HepG-2 cells; assay: LC-MS/MS determination of CA levels in total cellular and nuclear extracts; assay type: in vitro ADME, human; conditions: addition of 20 μM CA
Method: HepG-2 cells, 5,000 cells/cm^2, were cultured in DMEM (HG, 10% FBS) medium for 3 days, and then treated with 20 μM of CA for 0, 3, 6, 12, and 24 hours. After treatment, the cells were washed twice with cold PBS then harvested with 1 ml PBS. For total cell extraction, the cells were collected by centrifuge at 1,000 rpm for 5 min. For nuclei extraction, the nuclear fractions were extracted according to the manufacture's instructions for NE-PER™ Nuclear and Cytoplasmic Extraction Reagents (Thermo Scientific, Rockford, IL). Total proteins in the cell and nuclear fractions were digested with proteinase K (2 mg/ml), incubated at 50° C. with shaking for 3 hours. The total lipids in the total cell and nuclear fractions were extracted with 10 volumes of chloroform:methanol 1:1, vortexed, and sonicated for 30 mins. The extracts were centrifuged at 1,000 rpm for 5 min, the supernatants were dried up by stream nitrogen, then dissolved with 200 μl of methanol, 2 μl of the extracts were used for the CA analysis by LC-MS/MS system as below.
Shimadzu LCMS-8600 CL LC-MS system equipped with electrospray ionization (ESI) were used to determine the CA levels. Data were collected and processed using Shimadzu Lab solutions software. Hypersil Gold™ C18 (50 mm×2.1 mm inner diameter, particle size 2.6 μm, Thermo Scientific) was maintained at 40° C. during the analysis. […]

Chain of recombinant DNMT1 (P26358 whole entry): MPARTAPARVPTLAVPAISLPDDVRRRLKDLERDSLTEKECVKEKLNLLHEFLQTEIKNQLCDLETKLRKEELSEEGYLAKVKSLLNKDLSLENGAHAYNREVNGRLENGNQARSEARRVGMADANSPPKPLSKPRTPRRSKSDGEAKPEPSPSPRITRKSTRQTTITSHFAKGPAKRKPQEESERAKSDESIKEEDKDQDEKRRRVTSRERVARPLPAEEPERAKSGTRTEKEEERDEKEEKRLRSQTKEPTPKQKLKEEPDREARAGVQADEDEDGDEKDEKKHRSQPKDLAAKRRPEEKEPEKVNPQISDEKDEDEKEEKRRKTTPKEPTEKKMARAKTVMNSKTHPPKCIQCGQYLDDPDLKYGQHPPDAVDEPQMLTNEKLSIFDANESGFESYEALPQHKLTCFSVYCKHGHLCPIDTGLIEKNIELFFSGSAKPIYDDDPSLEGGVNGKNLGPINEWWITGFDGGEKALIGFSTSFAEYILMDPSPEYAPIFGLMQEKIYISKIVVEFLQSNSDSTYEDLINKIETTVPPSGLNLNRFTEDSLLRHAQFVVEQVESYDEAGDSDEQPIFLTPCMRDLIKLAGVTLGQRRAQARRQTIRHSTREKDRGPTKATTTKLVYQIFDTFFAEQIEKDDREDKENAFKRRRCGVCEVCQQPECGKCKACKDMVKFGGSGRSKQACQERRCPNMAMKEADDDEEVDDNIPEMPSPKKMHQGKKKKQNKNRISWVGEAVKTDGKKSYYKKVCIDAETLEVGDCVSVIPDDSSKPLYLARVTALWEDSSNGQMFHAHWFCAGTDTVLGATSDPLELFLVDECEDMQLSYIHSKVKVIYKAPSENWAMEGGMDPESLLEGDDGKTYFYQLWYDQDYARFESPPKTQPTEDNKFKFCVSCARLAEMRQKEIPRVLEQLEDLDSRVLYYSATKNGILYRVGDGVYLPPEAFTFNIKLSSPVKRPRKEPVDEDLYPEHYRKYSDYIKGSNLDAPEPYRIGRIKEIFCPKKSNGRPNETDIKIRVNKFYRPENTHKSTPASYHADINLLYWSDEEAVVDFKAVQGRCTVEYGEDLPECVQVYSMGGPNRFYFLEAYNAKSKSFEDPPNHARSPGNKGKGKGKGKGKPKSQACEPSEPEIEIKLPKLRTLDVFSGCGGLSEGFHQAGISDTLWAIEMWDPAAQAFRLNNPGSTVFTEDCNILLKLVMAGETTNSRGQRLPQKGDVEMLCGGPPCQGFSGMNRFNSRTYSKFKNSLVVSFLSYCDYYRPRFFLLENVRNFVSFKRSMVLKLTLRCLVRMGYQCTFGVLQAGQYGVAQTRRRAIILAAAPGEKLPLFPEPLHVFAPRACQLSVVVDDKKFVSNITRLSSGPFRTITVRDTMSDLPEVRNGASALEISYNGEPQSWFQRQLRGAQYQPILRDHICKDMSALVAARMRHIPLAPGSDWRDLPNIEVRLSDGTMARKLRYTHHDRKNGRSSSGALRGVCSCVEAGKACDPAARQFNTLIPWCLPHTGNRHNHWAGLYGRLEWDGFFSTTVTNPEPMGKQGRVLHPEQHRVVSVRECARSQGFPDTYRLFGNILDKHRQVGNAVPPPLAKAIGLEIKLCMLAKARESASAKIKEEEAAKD

SMILES: CC(CCC[C@@H](C)[C@H]1CC[C@H]2[C@@H]3CC=C4C[C@@H](O)CC[C@]4(C)[C@H]3CC[C@]12C)C(=O)O (stereo partly drawn) [CA, 3β-hydroxy-5-cholestenoic acid]
- IC50 ([1]; at higher concentration, read-out: IC50, inhibits DNMT1 activity): 9.13 µM
- EC50 ([1]; at low concentration, mean±SD, n=3, read-out: EC50, activates DNMT1): 1990 nM
- IC50 [2]: 4.89 µM
- increase of CA in cellular nuclei ([3]; 6 hours): 4 fold
- increase of intracellular CA levels ([3]; 12 hours): 85 fold
